This passage reports AC50 results from ChEMBL document CHEMBL5291721, “A preclinical secondary pharmacology resource illuminates target-adverse drug reaction associations of marketed drugs” (Nat Commun, 2023).

A value given as a limit tells only on which side of the number the result lay.

In one assay the target is T1, Estrogen receptor (Homo sapiens, UniProt P03372).
T1 sequence (P03372 whole entry): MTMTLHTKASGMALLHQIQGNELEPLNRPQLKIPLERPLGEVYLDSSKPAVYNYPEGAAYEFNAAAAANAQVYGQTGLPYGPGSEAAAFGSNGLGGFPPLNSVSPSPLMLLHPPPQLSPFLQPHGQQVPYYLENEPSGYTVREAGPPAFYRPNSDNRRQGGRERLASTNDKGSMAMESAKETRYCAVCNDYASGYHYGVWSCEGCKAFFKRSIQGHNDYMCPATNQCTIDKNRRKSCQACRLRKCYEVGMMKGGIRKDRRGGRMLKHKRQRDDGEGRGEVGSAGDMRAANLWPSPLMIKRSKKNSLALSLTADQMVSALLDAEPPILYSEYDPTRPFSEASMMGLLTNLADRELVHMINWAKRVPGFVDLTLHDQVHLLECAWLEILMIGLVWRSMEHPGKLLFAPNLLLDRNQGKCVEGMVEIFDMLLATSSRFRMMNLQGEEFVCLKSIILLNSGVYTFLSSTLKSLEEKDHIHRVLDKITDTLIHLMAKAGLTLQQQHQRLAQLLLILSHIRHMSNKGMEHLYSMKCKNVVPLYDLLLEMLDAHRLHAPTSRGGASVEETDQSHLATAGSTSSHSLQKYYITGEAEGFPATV
In kind it is functional.

The target in the next assay is T2, Thromboxane A2 receptor (Homo sapiens, UniProt P21731).
T2 sequence (P21731 whole entry): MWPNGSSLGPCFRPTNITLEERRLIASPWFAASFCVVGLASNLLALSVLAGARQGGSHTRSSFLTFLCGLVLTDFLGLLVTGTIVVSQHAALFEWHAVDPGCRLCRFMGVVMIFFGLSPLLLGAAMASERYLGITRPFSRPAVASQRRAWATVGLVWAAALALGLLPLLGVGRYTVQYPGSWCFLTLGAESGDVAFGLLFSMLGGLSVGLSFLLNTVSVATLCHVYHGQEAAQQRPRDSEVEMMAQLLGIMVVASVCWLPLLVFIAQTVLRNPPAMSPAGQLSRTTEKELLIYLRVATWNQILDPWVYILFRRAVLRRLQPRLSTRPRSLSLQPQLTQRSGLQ
It counts as functional, cell-based.

Assay [1] deals with Receptor tyrosine-protein kinase erbB-2 (Homo sapiens, UniProt P04626). It counts as functional.
Assay [2] has as its target Vascular endothelial growth factor receptor 2 (Homo sapiens, UniProt P35968). In kind it is functional.
Assay [3] concerns the target T3, Retinoic acid receptor beta (Homo sapiens, UniProt P10826).
T3 sequence (P10826 whole entry): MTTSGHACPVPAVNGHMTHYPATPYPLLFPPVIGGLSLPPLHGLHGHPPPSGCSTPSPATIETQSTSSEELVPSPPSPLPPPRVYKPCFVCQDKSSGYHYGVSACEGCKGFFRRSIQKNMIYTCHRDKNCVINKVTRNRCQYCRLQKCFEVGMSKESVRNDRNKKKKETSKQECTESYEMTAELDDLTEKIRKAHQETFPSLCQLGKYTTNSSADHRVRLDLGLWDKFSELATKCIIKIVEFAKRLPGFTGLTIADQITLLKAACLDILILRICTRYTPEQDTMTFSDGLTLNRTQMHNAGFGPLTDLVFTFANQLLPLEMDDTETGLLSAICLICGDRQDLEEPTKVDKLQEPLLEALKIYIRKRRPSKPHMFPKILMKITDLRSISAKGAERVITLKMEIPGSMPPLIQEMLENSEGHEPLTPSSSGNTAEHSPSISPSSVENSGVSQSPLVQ
It counts as functional, cell-based.

The target of a further assay is T4, Bile acid receptor (Homo sapiens, UniProt Q96RI1).
T4 sequence (Q96RI1 whole entry): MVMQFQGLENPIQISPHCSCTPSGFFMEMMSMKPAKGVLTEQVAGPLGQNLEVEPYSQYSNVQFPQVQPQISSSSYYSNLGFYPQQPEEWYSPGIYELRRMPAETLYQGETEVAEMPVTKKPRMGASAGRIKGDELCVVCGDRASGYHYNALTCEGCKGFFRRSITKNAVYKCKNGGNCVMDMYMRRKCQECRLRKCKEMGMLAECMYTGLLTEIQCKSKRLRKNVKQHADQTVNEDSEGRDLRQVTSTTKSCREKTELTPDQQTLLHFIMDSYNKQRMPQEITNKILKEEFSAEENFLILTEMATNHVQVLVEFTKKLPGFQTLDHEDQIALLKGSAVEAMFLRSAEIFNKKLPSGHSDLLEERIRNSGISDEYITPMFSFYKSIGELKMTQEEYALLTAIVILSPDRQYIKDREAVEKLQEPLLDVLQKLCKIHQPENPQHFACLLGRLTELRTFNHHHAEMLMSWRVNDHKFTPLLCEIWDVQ
In kind it is functional.

A further assay concerns the target Histamine H2 receptor (Homo sapiens, UniProt P25021).
The next assay deals with Cannabinoid receptor 1 (Homo sapiens, UniProt P21554). In kind it is functional.
Assay [4] deals with T5, Muscarinic acetylcholine receptor M5 (Homo sapiens, UniProt P08912).
T5 sequence (P08912 whole entry): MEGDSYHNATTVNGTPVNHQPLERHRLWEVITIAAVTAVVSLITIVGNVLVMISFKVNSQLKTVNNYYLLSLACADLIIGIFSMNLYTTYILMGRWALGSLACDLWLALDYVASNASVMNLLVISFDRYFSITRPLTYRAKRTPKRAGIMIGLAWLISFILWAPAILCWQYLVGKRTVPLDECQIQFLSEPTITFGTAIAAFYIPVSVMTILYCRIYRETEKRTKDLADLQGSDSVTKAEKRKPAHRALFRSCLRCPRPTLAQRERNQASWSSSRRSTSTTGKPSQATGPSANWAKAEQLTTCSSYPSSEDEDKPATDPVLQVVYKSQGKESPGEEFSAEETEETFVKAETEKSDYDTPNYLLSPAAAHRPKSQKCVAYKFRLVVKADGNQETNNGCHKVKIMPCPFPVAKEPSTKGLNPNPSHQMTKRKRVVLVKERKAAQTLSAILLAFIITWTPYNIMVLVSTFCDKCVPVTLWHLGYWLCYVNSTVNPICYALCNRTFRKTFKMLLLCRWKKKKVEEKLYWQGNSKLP

In assay [5] the target is 5-hydroxytryptamine receptor 7 (Homo sapiens, UniProt P34969).
Assay [6] has as its target Voltage-dependent L-type calcium channel subunit alpha-1C (Homo sapiens, UniProt Q13936). In kind it is functional, cell-based.
Also: assay procedure not described here.

Sequence of Cannabinoid receptor 1 (P21554 whole entry): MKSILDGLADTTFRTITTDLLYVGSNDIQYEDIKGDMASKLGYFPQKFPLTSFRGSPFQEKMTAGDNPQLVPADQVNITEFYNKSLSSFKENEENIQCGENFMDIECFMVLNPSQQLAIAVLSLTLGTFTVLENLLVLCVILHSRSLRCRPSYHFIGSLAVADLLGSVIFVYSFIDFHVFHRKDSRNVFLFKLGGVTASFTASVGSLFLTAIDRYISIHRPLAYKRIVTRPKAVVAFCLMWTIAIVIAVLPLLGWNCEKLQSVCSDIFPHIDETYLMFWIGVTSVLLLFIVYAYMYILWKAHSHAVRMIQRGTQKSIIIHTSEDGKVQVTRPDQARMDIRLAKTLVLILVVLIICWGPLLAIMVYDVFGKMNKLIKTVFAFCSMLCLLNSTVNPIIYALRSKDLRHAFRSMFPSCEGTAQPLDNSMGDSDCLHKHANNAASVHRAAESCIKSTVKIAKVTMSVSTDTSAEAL
Sequence of Histamine H2 receptor (P25021 whole entry): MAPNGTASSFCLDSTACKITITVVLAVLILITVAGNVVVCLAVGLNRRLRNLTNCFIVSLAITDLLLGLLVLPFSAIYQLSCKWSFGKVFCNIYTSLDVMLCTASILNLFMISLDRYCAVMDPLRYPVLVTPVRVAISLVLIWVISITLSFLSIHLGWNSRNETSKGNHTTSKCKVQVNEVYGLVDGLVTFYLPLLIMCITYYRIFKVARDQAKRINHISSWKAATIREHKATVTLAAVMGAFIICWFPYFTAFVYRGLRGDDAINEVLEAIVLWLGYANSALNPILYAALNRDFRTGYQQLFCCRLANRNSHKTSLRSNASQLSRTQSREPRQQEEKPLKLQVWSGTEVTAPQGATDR
Sequence of Vascular endothelial growth factor receptor 2 (P35968 whole entry): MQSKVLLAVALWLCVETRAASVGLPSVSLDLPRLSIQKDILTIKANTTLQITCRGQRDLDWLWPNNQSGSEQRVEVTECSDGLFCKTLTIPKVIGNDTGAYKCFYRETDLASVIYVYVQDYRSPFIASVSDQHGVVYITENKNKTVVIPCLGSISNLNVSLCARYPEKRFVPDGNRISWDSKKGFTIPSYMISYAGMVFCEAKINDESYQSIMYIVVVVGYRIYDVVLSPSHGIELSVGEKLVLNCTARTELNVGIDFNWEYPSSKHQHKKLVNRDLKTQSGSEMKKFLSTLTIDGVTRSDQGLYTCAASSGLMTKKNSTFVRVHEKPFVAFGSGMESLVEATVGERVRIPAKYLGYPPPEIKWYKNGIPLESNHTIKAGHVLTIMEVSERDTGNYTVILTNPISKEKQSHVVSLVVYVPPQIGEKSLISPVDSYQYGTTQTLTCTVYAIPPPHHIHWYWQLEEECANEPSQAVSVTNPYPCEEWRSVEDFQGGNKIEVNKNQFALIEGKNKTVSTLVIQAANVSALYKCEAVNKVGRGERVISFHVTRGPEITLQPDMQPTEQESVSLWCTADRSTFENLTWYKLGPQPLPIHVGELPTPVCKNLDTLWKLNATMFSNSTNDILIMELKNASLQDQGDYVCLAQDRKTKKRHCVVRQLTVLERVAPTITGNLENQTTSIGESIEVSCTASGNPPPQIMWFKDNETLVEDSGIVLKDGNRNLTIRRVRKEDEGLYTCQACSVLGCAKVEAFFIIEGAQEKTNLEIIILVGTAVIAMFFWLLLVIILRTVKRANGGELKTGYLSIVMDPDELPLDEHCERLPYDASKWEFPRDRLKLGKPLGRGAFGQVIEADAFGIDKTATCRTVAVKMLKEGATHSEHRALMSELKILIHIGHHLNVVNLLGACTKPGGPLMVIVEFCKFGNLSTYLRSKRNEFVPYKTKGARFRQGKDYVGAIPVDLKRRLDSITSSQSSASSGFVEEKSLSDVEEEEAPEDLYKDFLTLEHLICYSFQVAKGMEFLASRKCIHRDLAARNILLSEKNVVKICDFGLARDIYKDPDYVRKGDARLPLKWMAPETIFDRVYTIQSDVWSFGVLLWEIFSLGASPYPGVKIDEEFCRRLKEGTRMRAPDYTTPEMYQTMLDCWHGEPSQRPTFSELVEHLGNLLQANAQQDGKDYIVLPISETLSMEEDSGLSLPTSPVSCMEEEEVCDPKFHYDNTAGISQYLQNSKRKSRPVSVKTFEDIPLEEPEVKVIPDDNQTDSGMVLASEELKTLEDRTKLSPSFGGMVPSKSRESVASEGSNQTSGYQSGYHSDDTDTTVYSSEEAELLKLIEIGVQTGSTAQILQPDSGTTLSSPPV
Sequence of Receptor tyrosine-protein kinase erbB-2 (P04626 whole entry): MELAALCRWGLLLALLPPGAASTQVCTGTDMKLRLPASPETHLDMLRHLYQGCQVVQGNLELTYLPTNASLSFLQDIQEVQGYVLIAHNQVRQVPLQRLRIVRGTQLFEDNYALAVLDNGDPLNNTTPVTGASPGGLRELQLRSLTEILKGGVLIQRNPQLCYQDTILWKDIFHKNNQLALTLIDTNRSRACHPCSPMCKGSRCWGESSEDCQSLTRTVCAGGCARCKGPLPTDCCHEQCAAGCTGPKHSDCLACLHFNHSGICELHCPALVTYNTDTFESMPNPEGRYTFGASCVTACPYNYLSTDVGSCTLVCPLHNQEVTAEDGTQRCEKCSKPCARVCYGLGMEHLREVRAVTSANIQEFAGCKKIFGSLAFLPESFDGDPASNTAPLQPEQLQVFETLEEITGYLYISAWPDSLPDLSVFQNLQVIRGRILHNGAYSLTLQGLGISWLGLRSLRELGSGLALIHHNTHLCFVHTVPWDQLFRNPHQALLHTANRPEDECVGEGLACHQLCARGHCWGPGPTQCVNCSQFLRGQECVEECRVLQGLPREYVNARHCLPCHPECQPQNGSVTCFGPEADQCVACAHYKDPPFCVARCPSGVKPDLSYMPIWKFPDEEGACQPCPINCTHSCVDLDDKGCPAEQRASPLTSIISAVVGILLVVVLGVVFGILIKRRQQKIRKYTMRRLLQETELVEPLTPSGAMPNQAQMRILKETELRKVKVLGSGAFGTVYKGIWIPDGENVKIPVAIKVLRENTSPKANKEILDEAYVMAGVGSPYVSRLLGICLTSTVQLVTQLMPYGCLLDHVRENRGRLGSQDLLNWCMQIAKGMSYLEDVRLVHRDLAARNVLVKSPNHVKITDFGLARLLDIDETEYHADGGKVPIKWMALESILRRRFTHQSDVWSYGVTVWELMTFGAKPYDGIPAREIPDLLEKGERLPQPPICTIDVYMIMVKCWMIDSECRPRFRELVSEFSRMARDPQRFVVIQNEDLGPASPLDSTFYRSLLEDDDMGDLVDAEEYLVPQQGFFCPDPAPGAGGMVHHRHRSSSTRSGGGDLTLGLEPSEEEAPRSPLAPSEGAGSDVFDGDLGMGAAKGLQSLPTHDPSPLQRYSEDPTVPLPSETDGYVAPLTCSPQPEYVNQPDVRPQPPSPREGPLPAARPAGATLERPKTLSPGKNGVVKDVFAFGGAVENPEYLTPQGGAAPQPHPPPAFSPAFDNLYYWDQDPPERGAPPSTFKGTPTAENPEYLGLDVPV
Sequence of 5-hydroxytryptamine receptor 7 (P34969 whole entry): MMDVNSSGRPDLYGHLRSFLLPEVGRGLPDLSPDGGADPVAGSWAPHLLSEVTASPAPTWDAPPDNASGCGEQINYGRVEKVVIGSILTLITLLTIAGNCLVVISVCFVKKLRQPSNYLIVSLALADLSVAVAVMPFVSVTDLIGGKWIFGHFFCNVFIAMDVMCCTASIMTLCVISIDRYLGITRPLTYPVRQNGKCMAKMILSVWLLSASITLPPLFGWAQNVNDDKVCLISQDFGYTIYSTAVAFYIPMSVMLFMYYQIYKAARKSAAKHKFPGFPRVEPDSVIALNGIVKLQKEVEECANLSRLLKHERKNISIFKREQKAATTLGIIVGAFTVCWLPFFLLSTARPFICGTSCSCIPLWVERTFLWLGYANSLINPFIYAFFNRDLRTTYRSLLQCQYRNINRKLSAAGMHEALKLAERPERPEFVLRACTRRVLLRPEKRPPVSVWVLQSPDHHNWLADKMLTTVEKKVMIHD

As usually defined, the AC50 is the concentration giving half of the maximal activity seen. For `CC(=N)N1CC[C@H](SC2=C(C(=O)O)N3C(=O)[C@H]([C@@H](C)O)[C@H]3C2)C1`, the concentration at half-maximal activity (AC50) on Estrogen receptor is 84 µM; on Thromboxane A2 receptor it was greater than 300 µM; in assay [1], greater than 300 µM; in assay [2] it was greater than 300 µM.

With `CC(/C=C1\SC(=S)N(CC(=O)O)C1=O)=C\c1ccccc1`, the half-maximal activity concentration (AC50) in assay [3] is greater than 30 µM; at Bile acid receptor it was 4 µM.

`CCc1oc2ccccc2c1C(=O)c1cc(Br)c(O)c(Br)c1` [BENZBROMARONE] returned an AC50 on Estrogen receptor greater than 30 µM.

For `C=C(C)[C@@H]1CCC(C)=C[C@H]1c1c(O)cc(CCCCC)cc1O` [CANNABIDIOL], the concentration at half-maximal activity (AC50) (at Estrogen receptor; in assay [1]; in [2]) was greater than 30 µM in each case.

`Clc1cccc(Cl)c1N=C1NCCN1` [CLONIDINE] returned a concentration at half-maximal activity (AC50) at Histamine H2 receptor greater than 10 µM.

On to `COC(=O)[C@H](c1ccccc1Cl)N1CCc2sccc2C1` [CLOPIDOGREL], for which the concentration at half-maximal activity (AC50) at Histamine H2 receptor was greater than 10 µM; on Cannabinoid receptor 1, greater than 10 µM; on Estrogen receptor it was greater than 30 µM; in assay [4], greater than 10 µM; in assay [5], greater than 10 µM.

Turning to `CN1C[C@H](C(=O)N[C@]2(C)O[C@@]3(O)[C@@H]4CCCN4C(=O)[C@H](Cc4ccccc4)N3C2=O)C[C@@H]2c3cccc4[nH]cc(c34)C[C@H]21` [DIHYDROERGOTAMINE], the activity at Histamine H2 receptor was half-maximal at 0.257 µM (AC50).

As to `CNCC[C@H](Oc1cccc2ccccc12)c1cccs1` [DULOXETINE], the concentration at half-maximal activity (AC50) in [6] came to 29 µM.

For `C#Cc1cccc(Nc2ncnc3cc(OCCOC)c(OCCOC)cc23)c1` [ERLOTINIB], the half-maximal activity concentration (AC50) on Estrogen receptor and at Thromboxane A2 receptor was greater than 30 µM each time.

In the case of `CC1(C)O[C@@H]2C[C@H]3[C@@H]4C[C@H](F)C5=CC(=O)C=C[C@]5(C)[C@H]4[C@@H](O)C[C@]3(C)[C@]2(C(=O)CO)O1` [FLUNISOLIDE], on Estrogen receptor, the AC50 is greater than 30 µM.

With `C[C@H]1Oc2cc(cnc2N)-c2c(nn(C)c2C#N)CN(C)C(=O)c2ccc(F)cc21` [LORLATINIB], the concentration at half-maximal activity (AC50) (on Estrogen receptor; at Thromboxane A2 receptor; in assay [1]; in assay [2]) was greater than 30 µM each time.

Take `Cc1cnc(NC(=O)C2=C(O)c3ccccc3S(=O)(=O)N2C)s1` [MELOXICAM]: the AC50 (on Histamine H2 receptor; on Cannabinoid receptor 1; in assay [4]; in assay [5]) was greater than 10 µM in each case.

In assay [4], `CNCCC=C1c2ccccc2CCc2ccccc21` [NORTRIPTYLINE] yielded a concentration at half-maximal activity (AC50) of 0.262 µM.

In the case of `CN(C)c1cc(CNCC(C)(C)C)c(O)c2c1C[C@H]1C[C@H]3[C@H](N(C)C)C(O)=C(C(N)=O)C(=O)[C@@]3(O)C(O)=C1C2=O` [OMADACYCLINE], in [4], the AC50 is greater than 30 µM.

Turning to `COc1ccnc(C[S+]([O-])c2nc3ccc(OC(F)F)cc3[nH]2)c1OC` (centres undefined) [PANTOPRAZOLE], the half-maximal activity concentration (AC50) on Histamine H2 receptor is greater than 10 µM.

In the case of `CNC[C@H](O)c1cccc(O)c1` [PHENYLEPHRINE], the AC50 (on Histamine H2 receptor; at Cannabinoid receptor 1; in [4]; in assay [5]) was greater than 10 µM each time.

Turning to `O=C1NC(=O)C(c2ccccc2)(c2ccccc2)N1` [PHENYTOIN], the AC50 was greater than 50 µM in assay [6], greater than 30 µM at Thromboxane A2 receptor, greater than 30 µM in assay [1] and greater than 30 µM in [2].

Take `CC(C)C[C@H](CN)CC(=O)O` [PREGABALIN]: the concentration at half-maximal activity (AC50) (on Estrogen receptor; in [1]; in assay [2]) was greater than 30 µM in each case.

For the molecule `CNC(=O)c1cc(Oc2ccc(NC(=O)Nc3ccc(Cl)c(C(F)(F)F)c3)c(F)c2)ccn1` [REGORAFENIB], the AC50 (in assay [3]; at Bile acid receptor) was greater than 30 µM each time.

With `CCOc1cc(CC(=O)N[C@@H](CC(C)C)c2ccccc2N2CCCCC2)ccc1C(=O)O` [REPAGLINIDE], the AC50 in [3] is greater than 30 µM; at Bile acid receptor, 27 µM.

Consider `NC(=O)c1ncn([C@@H]2O[C@H](CO)[C@@H](O)[C@H]2O)n1` [RIBAVIRIN], for which, in [6], the AC50 was greater than 50 µM.

As to `O=C(Nc1c(Cl)cncc1Cl)c1ccc(OC(F)F)c(OCC2CC2)c1` [ROFLUMILAST], in assay [6], the AC50 is greater than 50 µM.

On to `CCCN(CCC)CCc1cccc2c1CC(=O)N2` [ROPINIROLE], for which the half-maximal activity concentration (AC50) on Histamine H2 receptor is greater than 10 µM; on Thromboxane A2 receptor, greater than 30 µM; in assay [1], greater than 30 µM; in assay [2], greater than 30 µM.

With `CCCN(CCc1cccs1)[C@H]1CCc2c(O)cccc2C1` [ROTIGOTINE], the concentration at half-maximal activity (AC50) (at Estrogen receptor; at Thromboxane A2 receptor; in [1]; in [2]) was greater than 30 µM in each case.

Take `CC[C@H]1OC(=O)[C@H](C)[C@@H](O[C@H]2C[C@@](C)(OC)[C@@H](O)[C@H](C)O2)[C@H](C)[C@@H](O[C@@H]2O[C@H](C)C[C@H](N(C)C)[C@H]2O)[C@](C)(O)C[C@@H](C)/C(=N\OCOCCOC)[C@H](C)[C@@H](O)[C@]1(C)O` [ROXITHROMYCIN]: the AC50 (at Estrogen receptor; in assay [1]; in assay [2]) was greater than 30 µM in each case.

Consider `CC(C)N(CCCCOCC(=O)NS(C)(=O)=O)c1cnc(-c2ccccc2)c(-c2ccccc2)n1` [SELEXIPAG], for which the AC50 in [6] is greater than 50 µM.

On to `CC(=O)S[C@@H]1CC2=CC(=O)CC[C@]2(C)[C@H]2CC[C@@]3(C)[C@@H](CC[C@@]34CCC(=O)O4)[C@H]12` [SPIRONOLACTONE], for which the AC50 was greater than 10 µM at Histamine H2 receptor, greater than 30 µM on Estrogen receptor, greater than 30 µM in [1] and greater than 30 µM in [2].

Regarding `CCCCNc1ccc(C(=O)OCCN(C)C)cc1` [TETRACAINE], the concentration at half-maximal activity (AC50) is greater than 30 µM in assay [6]; 4.08 µM at Histamine H2 receptor; 0.0006 µM on Cannabinoid receptor 1; greater than 10 µM in [4]; greater than 10 µM in assay [5].

Consider `CC1(C)O[C@@H]2[C@@H](CO[C@@]3(COS(N)(=O)=O)OC(C)(C)O[C@@H]23)O1` [TOPIRAMATE], for which the concentration at half-maximal activity (AC50) (at Histamine H2 receptor; on Cannabinoid receptor 1; in assay [4]; in assay [5]) was greater than 10 µM in each case.
